According to ChEMBL document CHEMBL1132890, “Prediction of drug solubility from Monte Carlo simulations” (Bioorg Med Chem Lett, 2000):

conditions: buffer

Row | Compound | Log S
1 | O=C1Nc2ccc(Cl)cc2C(c2ccccc2Cl)=NC1O (centres undefined) [LORAZEPAM] | -3.6
2 | C=C(C)C1CC=C(C)C(=O)C1 (centres undefined) [CARVONE] | -2.06
3 | CC(=O)CC(c1ccccc1)c1c(O)c2ccccc2oc1=O (centres undefined) [WARFARIN] | -4.26
4 | COC1=CC(=O)C[C@@H](C)[C@]12Oc1c(Cl)c(OC)cc(OC)c1C2=O [GRISEOFULVIN] | -4.07
5 | c1ccc2c(c1)oc1ccccc12 [DIBENZOFURAN] | -4.6
6 | Cc1ccccc1 [TOLUENE] | -2.21
7 | Clc1c(Cl)c(Cl)c(-c2ccccc2)c(Cl)c1Cl | -7.78
8 | NC(=O)c1ccccc1 [BENZAMIDE] | -0.96
9 | Nc1ccccc1 [ANILINE] | -0.41
10 | COc1ccccc1 [ANISOLE] | -1.85
11 | CN(C)CCCN1c2ccccc2Sc2ccc(Cl)cc21 [CHLORPROMAZINE] | -5.1
12 | CCOC(=O)NCCOc1ccc(Oc2ccccc2)cc1 [PHENOXYCARB] | -4.7
13 | Cc1ccc(O)cc1 [p-CRESOL] | -0.73
14 | C1COCCN1 [MORPHOLINE] | 1.97
15 | CCCCCC [HEXANE] | -3.84
16 | O=[N+]([O-])c1ccccc1 [NITROBENZENE] | -1.8
17 | O=C1CN(/N=C/c2ccc([N+](=O)[O-])o2)C(=O)N1 [NITROFURANTOIN] | -3.38
18 | O=C(O)c1ccccc1 [BENZOIC ACID] | -1.55
19 | c1ccc(-c2ccccc2)cc1 [BIPHENYL] | -4.35
20 | Oc1cccc(Cl)c1Cl | -1.3
21 | c1ccc2ncccc2c1 [QUINOLINE] | -1.3
22 | CCCO [PROPANOL] | 0.62
23 | COC(C)=O [ACETIC ACID METHYL ESTER] | 0.46
24 | O=C(O)c1ccccc1O [SALICYLIC ACID] | -1.82
25 | O=C(O)Cc1ccccc1Oc1ccc(Cl)cc1Cl [FENCLOFENAC] | -3.85
26 | c1ccc2[nH]ccc2c1 [INDOLE] | -1.21
27 | CC/C(=C(/CC)c1ccc(O)cc1)c1ccc(O)cc1 [DIETHYLSTILBESTROL] | -4.07
28 | CCO [ALCOHOL] | 1.1
29 | COC(=O)[C@@H]1C2CC[C@@H](C[C@@H]1OC(=O)c1ccccc1)N2C (single isomer, unassigned) [COCAINE] | -2.25
